Measurements taken from patent US20130317068A1, “SUBSTITUTED 1,2,4-TRIAZOLE COMPOUNDS AS A SEED TREATMENT TO CONTROL PESTS” (Dow Agrosciences LLC, priority 2012, published 2013).

What was measured:
[1] = tested on: Aphis gossypii (cotton aphid); test: Insecticidal activity on cotton aphid, solutions applied to cabbage leaf surface then infested; type: in vivo; conditions: for mortality at 50 ppm / mortality at 200 ppm: Aphis gossypii; for mortality at 200 ppm: Rate 200 PPM solution
Description: (§1) Different substituted 1,2,4-triazole compounds of the present disclosure were tested for insecticidal activity on Aphis gossypii (cotton aphid) and Myzus persicae (green peach aphid). The different substituted 1,2,4-triazole compounds were formulated as either 200 PPM solutions or 50 PPM solutions. The 200 PPM solutions or 50 PPM solutions of the different substituted 1,2,4-triazole compounds were applied to a cabbage leaf surface and the resulting samples were subjected to an infestation of Aphis gossypii and Myzus persicae.
(§2) In Table 1, “ND” means mortality data was not determined at this rate.

[2] = tested on: Myzus persicae (green peach aphid); test: Insecticidal activity on green peach aphid, solutions applied to cabbage leaf surface then infested; type: in vivo; conditions: for mortality at 50 ppm: Rate 50 PPM solution; for mortality at 200 ppm: Rate 200 PPM solution
Description: as §1, §2

Compound	mortality at 50 ppm ([1]; Rate 50 PPM solution) [%]	mortality at 50 ppm [2] [%]	mortality at 200 ppm [2] [%]	mortality at 200 ppm [1] [%]	Average % mortality, Cotton Aphid ([1]; Rate 50 PPM solution) [%]
Cc1cc(-c2ccc(OC(F)(F)C(F)Cl)cc2)sc1-c1nc(-c2c(F)cccc2Cl)nn1C (stereo not drawn)	66	75			
Cn1nc(-c2c(Cl)cncc2Cl)nc1-c1ccc(C(F)(F)F)cc1	88	79	87		
Cc1c(Br)csc1-c1nc(-c2c(F)cccc2Cl)nn1C	96	87	63	100	
Cn1nc(-c2c(F)cccc2F)nc1C1(C)CC1(Cl)Cl (stereo not drawn) [drawing 11]	90	13	81		
Cn1nc(-c2c(F)cccc2F)nc1C1(C)CC1(Cl)Cl (stereo not drawn) [drawing 12]					95
Cn1nc(-c2c(F)cccc2Cl)nc1-c1sc(Cl)c(Cl)c1Cl	32	81		99	
Cc1c(-c2nc(-c3c(F)cccc3Cl)nn2C)csc1-c1ccc(OC(F)(F)C(F)Cl)cc1 (stereo not drawn)	84	73			
